# Like-named read-outs stand apart in the source and are kept apart here.
# Legend:
# NSD2 = target: T1, NSD2 (Homo sapiens, UniProt O96028, T1150A); experiment: HotSpot [3H]SAM filter-binding methyltransferase assay; format: biochemical
# T1 construct: full length (residues 2-1365), N-terminal His tag, insect cell/baculovirus
# T1 sequence (O96028 2-1365 T1150A): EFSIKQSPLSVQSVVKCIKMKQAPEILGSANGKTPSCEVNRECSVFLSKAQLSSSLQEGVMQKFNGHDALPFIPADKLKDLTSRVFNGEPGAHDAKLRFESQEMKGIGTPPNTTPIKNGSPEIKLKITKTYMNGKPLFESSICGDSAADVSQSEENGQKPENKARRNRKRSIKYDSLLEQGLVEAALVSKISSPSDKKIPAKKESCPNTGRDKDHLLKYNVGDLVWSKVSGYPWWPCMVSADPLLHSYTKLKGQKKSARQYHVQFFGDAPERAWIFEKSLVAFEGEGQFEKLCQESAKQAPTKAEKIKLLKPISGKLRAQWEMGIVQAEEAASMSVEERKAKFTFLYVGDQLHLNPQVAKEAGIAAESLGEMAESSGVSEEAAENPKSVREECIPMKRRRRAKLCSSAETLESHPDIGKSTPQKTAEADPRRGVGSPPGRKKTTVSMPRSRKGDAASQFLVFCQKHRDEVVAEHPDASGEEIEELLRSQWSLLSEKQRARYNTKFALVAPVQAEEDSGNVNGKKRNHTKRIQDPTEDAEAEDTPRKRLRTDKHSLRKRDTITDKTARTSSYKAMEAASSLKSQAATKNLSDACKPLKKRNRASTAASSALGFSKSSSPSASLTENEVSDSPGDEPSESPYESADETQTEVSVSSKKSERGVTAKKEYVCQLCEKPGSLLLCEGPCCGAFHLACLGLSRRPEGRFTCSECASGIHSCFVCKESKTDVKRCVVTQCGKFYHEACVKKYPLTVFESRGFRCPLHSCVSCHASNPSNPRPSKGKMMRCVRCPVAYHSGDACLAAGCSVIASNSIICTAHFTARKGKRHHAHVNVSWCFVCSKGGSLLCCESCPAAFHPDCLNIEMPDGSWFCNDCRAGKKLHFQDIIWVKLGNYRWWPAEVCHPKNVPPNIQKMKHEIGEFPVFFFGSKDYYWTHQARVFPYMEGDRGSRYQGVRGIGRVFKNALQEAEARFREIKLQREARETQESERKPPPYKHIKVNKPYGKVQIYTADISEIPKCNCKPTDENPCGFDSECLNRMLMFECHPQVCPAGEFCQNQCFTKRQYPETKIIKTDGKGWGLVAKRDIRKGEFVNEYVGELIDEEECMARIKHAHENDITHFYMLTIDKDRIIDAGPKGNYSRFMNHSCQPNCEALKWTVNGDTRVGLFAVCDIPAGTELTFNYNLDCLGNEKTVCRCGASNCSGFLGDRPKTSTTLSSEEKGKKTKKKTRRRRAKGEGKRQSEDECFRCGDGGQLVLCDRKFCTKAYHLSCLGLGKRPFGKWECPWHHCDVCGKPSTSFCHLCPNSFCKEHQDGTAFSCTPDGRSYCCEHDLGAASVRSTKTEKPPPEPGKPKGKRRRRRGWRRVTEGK
# EZH2 Complex = target: T2, EZH2 Complex (Homo sapiens, UniProt Q15910, Y641F); experiment: as above; format: biochemical
# T2 construct: five-member complex, Flag-EED, other subunits His-tagged, insect cells; with Zinc finger protein AEBP2; Polycomb protein EED; Polycomb protein SUZ12
# SMYD2 = SMYD2 (Homo sapiens, UniProt Q9NRG4); experiment: biochemical
# NSD3 = target: T3, NSD3 (Homo sapiens, UniProt Q9BZ95); experiment: HotSpot [3H]SAM filter-binding methyltransferase assay; format: biochemical; design: residues 1021-1322, GST fusion, E. coli; conditions: nucleosomes, […] SAM, Bicine pH […] DTT, […] °C, single experiment
# T3 sequence (Q9BZ95 1021-1322): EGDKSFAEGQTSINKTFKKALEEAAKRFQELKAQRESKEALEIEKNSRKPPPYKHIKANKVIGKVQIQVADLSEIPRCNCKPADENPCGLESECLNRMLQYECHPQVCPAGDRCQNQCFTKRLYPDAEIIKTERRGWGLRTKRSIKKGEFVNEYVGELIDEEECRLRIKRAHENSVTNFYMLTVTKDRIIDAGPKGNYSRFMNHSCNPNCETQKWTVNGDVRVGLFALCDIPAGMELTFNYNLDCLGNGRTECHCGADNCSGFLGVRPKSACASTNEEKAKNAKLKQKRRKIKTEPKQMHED
# [1] = nucleosomes, […] SAM, pH […] MgCl2, […] DTT, […] °C, single experiment
# T2 sequence (Q15910 2-746 Y641F): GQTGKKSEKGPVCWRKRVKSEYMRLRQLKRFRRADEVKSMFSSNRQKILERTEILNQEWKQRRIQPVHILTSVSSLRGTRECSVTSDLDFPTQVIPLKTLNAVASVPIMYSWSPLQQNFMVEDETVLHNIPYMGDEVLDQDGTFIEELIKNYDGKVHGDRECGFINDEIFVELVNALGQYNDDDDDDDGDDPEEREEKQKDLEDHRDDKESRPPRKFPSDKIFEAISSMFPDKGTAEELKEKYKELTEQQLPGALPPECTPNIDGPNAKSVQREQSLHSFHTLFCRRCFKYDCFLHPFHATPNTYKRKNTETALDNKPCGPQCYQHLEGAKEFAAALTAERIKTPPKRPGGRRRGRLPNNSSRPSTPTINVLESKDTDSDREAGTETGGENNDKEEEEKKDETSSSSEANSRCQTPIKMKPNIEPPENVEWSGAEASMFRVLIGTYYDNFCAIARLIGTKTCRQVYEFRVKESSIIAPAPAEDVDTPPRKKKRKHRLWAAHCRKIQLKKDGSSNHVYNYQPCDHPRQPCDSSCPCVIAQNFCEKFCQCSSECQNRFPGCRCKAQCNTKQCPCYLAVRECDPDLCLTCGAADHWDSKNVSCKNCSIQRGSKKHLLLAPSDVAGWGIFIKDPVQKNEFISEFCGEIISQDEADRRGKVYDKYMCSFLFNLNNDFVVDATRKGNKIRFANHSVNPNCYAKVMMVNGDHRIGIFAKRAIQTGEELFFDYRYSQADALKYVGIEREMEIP
# T2 sequence (O75530 2-441 partner): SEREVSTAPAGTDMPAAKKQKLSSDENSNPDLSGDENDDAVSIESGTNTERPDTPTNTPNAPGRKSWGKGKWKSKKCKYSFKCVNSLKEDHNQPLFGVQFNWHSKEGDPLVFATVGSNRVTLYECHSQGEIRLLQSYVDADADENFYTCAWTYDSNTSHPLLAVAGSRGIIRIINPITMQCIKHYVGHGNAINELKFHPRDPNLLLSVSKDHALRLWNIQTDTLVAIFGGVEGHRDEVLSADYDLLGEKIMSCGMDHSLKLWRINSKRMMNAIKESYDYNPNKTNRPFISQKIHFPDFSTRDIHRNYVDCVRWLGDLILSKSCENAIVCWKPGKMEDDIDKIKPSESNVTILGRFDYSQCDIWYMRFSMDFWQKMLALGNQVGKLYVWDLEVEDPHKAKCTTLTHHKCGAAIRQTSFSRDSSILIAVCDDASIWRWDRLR
# T2 sequence (Q15022 2-739 partner): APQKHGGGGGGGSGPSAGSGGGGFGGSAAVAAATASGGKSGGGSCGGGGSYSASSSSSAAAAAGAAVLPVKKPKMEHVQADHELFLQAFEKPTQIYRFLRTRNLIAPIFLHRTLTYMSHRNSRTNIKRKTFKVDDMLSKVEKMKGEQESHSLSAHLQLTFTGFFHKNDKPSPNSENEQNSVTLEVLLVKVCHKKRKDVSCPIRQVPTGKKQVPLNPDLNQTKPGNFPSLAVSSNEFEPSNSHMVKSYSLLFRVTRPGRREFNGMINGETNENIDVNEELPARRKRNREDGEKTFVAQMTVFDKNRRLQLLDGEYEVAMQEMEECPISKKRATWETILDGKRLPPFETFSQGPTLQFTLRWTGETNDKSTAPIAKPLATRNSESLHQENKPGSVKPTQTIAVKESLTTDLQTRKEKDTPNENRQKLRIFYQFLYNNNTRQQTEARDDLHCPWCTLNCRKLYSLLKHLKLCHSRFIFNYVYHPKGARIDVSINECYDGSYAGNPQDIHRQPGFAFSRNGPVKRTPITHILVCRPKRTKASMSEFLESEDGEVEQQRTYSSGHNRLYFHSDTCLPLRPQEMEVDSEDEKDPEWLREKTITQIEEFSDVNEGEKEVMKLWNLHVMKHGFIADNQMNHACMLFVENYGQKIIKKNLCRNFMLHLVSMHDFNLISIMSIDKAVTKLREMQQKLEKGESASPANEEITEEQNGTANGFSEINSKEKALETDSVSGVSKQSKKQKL
# T2 sequence (Q09028 2-425 partner): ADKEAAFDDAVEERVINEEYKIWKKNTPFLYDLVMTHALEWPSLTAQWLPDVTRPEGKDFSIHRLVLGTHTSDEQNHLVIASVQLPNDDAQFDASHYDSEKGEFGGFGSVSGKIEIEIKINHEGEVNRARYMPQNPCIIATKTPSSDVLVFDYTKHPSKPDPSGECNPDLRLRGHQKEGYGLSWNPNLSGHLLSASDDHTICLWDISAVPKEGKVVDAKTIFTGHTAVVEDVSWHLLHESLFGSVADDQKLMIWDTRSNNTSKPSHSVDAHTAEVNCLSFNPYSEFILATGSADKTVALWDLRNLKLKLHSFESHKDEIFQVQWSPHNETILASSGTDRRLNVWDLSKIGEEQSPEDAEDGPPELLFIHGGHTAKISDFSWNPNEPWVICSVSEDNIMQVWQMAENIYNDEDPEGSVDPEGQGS
# T2 sequence (Q6ZN18 2-517 partner): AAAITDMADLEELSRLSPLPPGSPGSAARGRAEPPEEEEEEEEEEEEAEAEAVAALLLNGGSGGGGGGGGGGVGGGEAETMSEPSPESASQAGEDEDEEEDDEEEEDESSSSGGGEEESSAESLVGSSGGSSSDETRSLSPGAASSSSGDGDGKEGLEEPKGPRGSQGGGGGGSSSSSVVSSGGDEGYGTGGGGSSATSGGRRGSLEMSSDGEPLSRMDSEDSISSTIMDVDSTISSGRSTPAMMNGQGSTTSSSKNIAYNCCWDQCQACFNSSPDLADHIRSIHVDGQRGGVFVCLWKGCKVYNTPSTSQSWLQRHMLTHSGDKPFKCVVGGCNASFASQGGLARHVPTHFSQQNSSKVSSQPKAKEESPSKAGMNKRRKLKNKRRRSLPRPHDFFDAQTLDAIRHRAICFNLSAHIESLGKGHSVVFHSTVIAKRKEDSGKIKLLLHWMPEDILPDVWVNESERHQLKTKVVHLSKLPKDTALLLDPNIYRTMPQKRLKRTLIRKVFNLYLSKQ
# Sequence of SMYD2 (Q9NRG4 whole entry, the tested form may be a part): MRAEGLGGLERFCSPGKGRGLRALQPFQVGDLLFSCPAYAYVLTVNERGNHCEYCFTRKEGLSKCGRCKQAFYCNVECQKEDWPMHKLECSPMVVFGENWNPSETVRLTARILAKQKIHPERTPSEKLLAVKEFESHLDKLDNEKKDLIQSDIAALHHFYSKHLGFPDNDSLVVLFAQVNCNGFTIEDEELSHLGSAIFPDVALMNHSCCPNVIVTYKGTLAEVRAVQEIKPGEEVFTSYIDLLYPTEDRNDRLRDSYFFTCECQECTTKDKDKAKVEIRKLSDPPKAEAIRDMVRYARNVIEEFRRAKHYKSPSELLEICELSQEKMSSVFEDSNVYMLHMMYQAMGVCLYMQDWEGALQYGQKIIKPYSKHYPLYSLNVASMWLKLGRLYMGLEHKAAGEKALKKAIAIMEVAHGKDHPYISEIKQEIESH
SMILES,IC50 (NSD2) [µM],IC50 (EZH2 Complex) [µM],IC50 (SMYD2) [µM],IC50 (NSD3) [µM],IC50 (NSD2; [1]) [µM],"IC50 (SMYD2; read-out: DA3003-1 IC50, inhibitor) [µM]","IC50 (EZH2 Complex; core histone, […] SAM, pH […] EDTA, […] DTT, […] °C, single experiment) [µM]"
CC1(C)CCC(CN2CCN(c3ccc(C(=O)NS(=O)(=O)c4ccc(NCC5CCOCC5)c([N+](=O)[O-])c4)c(Oc4cnc5[nH]ccc5c4)c3)CC2)=C(c2ccc(Cl)cc2)C1 [ABT-199],2.3,21,44,1.3,,,
O=C1C(Cl)=C(NCCN2CCOCC2)C(=O)c2ncccc21 [DA3003-1],,0.68,,0.26,0.17,1.7,
COc1cccc(-n2nc(C(=O)O)cc2-c2ccc(C3CCCCC3)c(Cl)c2)c1 [TC LPA5 4],,,21,2.3,8,,31

# Reference: article doi:10.1101/208439v1 (biorxiv, 2017)
